Laboratory results: the supplement of paper PMC11061612

Legend:
Test in all cases: Bliss excess, mean over the matrix (fraction); higher = more synergy
[1] = system: AM-38 (Glioblastoma)
How it was run: (§1)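 After 24 hours at 37°C and 5% CO2 in 1536-well plates, cells in DMEM/F12 or RPMI plus 10% FBS received two-drug dose matrices for 72 hours. Viability came from CellTiter-Glo 2.0 luminescence and was scaled as inhibition, anchored at 0 by vehicle wells and at 1 by blank wells. Combination Emax is taken as the second-highest inhibition in the matrix, and Bliss excess as the observed combination effect less EA + EB − EA·EB, with EA and EB the single-agent effects.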

[2] = system: BxPC-3 (Pancreatic Carcinoma)
How it was run: as §1

[3] = system: CL-11 (Colorectal Carcinoma)
How it was run: as §1

[4] = system: COR-L88 (Small Cell Lung Carcinoma)
How it was run: as §1

[5] = system: CPC-N (Small Cell Lung Carcinoma)
How it was run: as §1

[6] = system: IA-LM (Non-Small Cell Lung Carcinoma)
How it was run: as §1

[7] = system: NCI-H1876 (Small Cell Lung Carcinoma)
How it was run: as §1

[8] = system: NCI-H226 (Mesothelioma)
How it was run: as §1

[9] = system: NCI-H3118 (Head and Neck Carcinoma)
How it was run: as §1

[10] = system: OAW-28 (Ovarian Carcinoma)
How it was run: as §1

[11] = system: P30-OHK (B-Lymphoblastic Leukemia)
How it was run: as §1

[12] = system: P32-ISH (Burkitt's Lymphoma)
How it was run: as §1

[13] = system: RCC-JW (Kidney Carcinoma)
How it was run: as §1

[14] = system: Raji (Burkitt's Lymphoma)
How it was run: as §1

[15] = system: SK-CO-1 (Colorectal Carcinoma)
How it was run: as §1

[16] = system: SKG-IIIa (Cervical Carcinoma)
How it was run: as §1

[17] = system: SNU-423 (Hepatocellular Carcinoma)
How it was run: as §1

[18] = system: SNU-C2B (Colorectal Carcinoma)
How it was run: as §1

[19] = system: SUP-M2 (T-Cell Non-Hodgkin's Lymphoma)
How it was run: as §1

[20] = system: ZR-75-30 (Breast Carcinoma)
How it was run: as §1

Compound | Bliss excess [1] | Bliss excess [2] | Bliss excess [3] | Bliss excess [4] | Bliss excess [5] | Bliss excess [6] | Bliss excess [7] | Bliss excess [8] | Bliss excess [9] | Bliss excess [10] | Bliss excess [11] | Bliss excess [12] | Bliss excess [13] | Bliss excess [14] | Bliss excess [15] | Bliss excess [16] | Bliss excess [17] | Bliss excess [18] | Bliss excess [19] | Bliss excess [20]
CC1(C)CCC(CN2CCN(c3ccc(C(=O)NS(=O)(=O)c4ccc(NCC5CCOCC5)c([N+](=O)[O-])c4)c(Oc4cnc5[nH]ccc5c4)c3)CC2)=C(c2ccc(Cl)cc2)C1 [Venetoclax] + COc1cc(Nc2ncc3c(n2)-c2ccc(Cl)cc2C(c2c(F)cccc2OC)=NC3)ccc1C(=O)O [Alisertib] (first compound max 1 µM, 7x7, partner max 10 µM) | 0.0101 | -0.0291 | -0.0062 | 0.11 | -0.047 | -0.0469 | 0.0228 | -0.089 | -0.0188 | 0.0736 | 0.178 | -0.0078 | -0.0415 | -0.006 | 0.0901 | -0.0544 | 0.0176 | 0.0168 | -0.0043 | -0.0603
Cc1cc2ncnn2cc1Nc1ncc2c(n1)n(C1CCOCC1)c(=O)n2C [AZD7648] + CCN(CCO)CCCOc1ccc2c(Nc3cc(CC(=O)Nc4cccc(F)c4)[nH]n3)ncnc2c1 [AZD2811] (first compound max 10 µM, 7x7, partner max 1 µM) | 0.0106 | -0.0052 | 0.0274 | 0.0077 | -0.0306 | 0.0156 | -0.074 | -0.0733 | 0.0241 | 0.0284 | -0.0267 | -0.0367 | -0.011 | 0.0312 | -0.0524 | -0.0161 | -0.0408 | 0.0265 | -0.0267 | -0.0449
CC1(C)CCC(CN2CCN(c3ccc(C(=O)NS(=O)(=O)c4ccc(NCC5CCOCC5)c([N+](=O)[O-])c4)c(Oc4cnc5[nH]ccc5c4)c3)CC2)=C(c2ccc(Cl)cc2)C1 [Venetoclax] + C=CCn1c(=O)c2cnc(Nc3ccc(N4CCN(C)CC4)cc3)nc2n1-c1cccc(C(C)(C)O)n1 [AZD1775] (first compound max 1 µM, partner max 1 µM) | -0.0561 | 0.092 | -0.0425 | 0.0736 | 0.0439 | -0.0386 | -0.001 | -0.0296 | -0.0416 | -0.009 | 0.207 | -0.0118 | -0.0116 | -0.023 | -0.04 | -0.0362 | -0.0472 | -0.009 | 0.03 | -0.0286
CN(CCO)CC[C@H](CSc1ccccc1)Nc1ccc(S(=O)(=O)NC(=O)c2ccc(N3CCC([C@@H](O)c4ccccc4-c4ccc(Cl)cc4)CC3)cc2)cc1S(=O)(=O)C(F)(F)F [AZD4320] + C[C@@H](Nc1cc(F)cc(F)c1)c1cc(C(=O)N(C)C)cc2c(=O)cc(N3CCOCC3)oc12 [AZD8186] (first compound max 1 µM, 7x7, partner max 3 µM) | -0.0033 | 0.0345 | -0.0011 | 0.008 | 0.0273 | 0.0085 | 0.0682 | -0.015 | 0.0019 | 0.0055 | 0.0647 | 0.0526 | 0.0478 | 0.0133 | -0.051 | -0.0066 | -0.0628 | 0.0342 | 0.0539 | -0.0251
C=CCn1c(=O)c2cnc(Nc3ccc(N4CCN(C)CC4)cc3)nc2n1-c1cccc(C(C)(C)O)n1 [AZD1775] + C1CN(CCC1(C(=O)N[C@@H](CCO)C2=CC=C(C=C2)Cl)N)C3=NC=NC4=C3C=CN4 [Capivasertib] (first compound max 3 µM, partner max 3 µM) | -0.0247 | -0.0227 | -0.0499 | -0.0949 | -0.0415 | -0.0348 | -0.0304 | -0.0662 | -0.0253 | 0.0019 | 0.0697 | 0.0417 | -0.0527 | 0.0011 | -0.0603 | -0.0139 | -0.0333 | -0.0573 | 0.0518 | -0.0501
CCN(CCO)CCCOc1ccc2c(Nc3cc(CC(=O)Nc4cccc(F)c4)[nH]n3)ncnc2c1 [AZD2811] + O=C(c1cc(Cc2n[nH]c(=O)c3ccccc23)ccc1F)N1CCN(C(=O)C2CC2)CC1 [Olaparib] (first compound max 1 µM, 7x7, partner max 10 µM) | 0.0471 | 0.0032 | 0.0084 | -0.0475 | -0.0238 | -0.031 | -0.114 | -0.0448 | 0.0075 | -0.0474 | -0.04 | -0.035 | -0.0021 | 0.0005 | 0.0223 | -0.0286 | -0.0138 | -0.014 | -0.0429 | -0.0225
CC1(C)CCC(CN2CCN(c3ccc(C(=O)NS(=O)(=O)c4ccc(NCC5CCOCC5)c([N+](=O)[O-])c4)c(Oc4cnc5[nH]ccc5c4)c3)CC2)=C(c2ccc(Cl)cc2)C1 [Venetoclax] + C[C@@H](Nc1cc(F)cc(F)c1)c1cc(C(=O)N(C)C)cc2c(=O)cc(N3CCOCC3)oc12 [AZD8186] (first compound max 1 µM, 7x7, partner max 3 µM) | -0.0259 | -0.0115 | -0.0397 | 0.0393 | 0.0256 | -0.0416 | -0.0181 | -0.0577 | -0.0439 | 0.0551 | 0.149 | 0.0385 | 0.0135 | 0.0114 | -0.0782 | -0.0248 | 0.0364 | -0.0408 | 0.0106 | -0.0201
Cn1cnc2c(F)c(Nc3ccc(Br)cc3Cl)c(C(=O)NOCCO)cc21 [Selumetinib] + CCN(CCO)CCCOc1ccc2c(Nc3cc(CC(=O)Nc4cccc(F)c4)[nH]n3)ncnc2c1 [AZD2811] (first compound max 10 µM, 7x7, partner max 1 µM) | -0.0208 | -0.057 | 0.0129 | 0.0014 | -0.0474 | -0.0353 | 0.0986 | -0.0364 | 0.0259 | 0.0388 | -0.0123 | -0.0479 | -0.0464 | -0.0166 | -0.0098 | -0.0486 | -0.0263 | 0.0193 | -0.001 | -0.0544
C[C@@H](c1ccc2nccn2c1)n1nnc2ncc(-c3cnn(C)c3)nc21 [Savolitinib] + Cc1c2c(nn1C)CSCc1cc(n(C)n1)CSc1cc(c3ccccc3c1)OCCCc1c(C(=O)O)n(C)c3c-2c(Cl)ccc13 [AZD5991] (first compound max 1 µM, 7x7, partner max 1 µM) | -0.0194 | -0.0496 | -0.0402 | -0.0019 | -0.0179 | 0.0086 | 0.0044 | -0.04 | -0.0268 | -0.0129 | 0.0046 | -0.0162 | -0.0354 | -0.0383 | -0.037 | -0.0554 | -0.0364 | -0.0554 | -0.0292 | -0.0388
COc1cccc(OCCCN)c1-c1cc(Nc2cnc(C#N)cn2)n[nH]1 [Prexasertib] + CN(C)CCCOc1ccc(-c2ccc3ncc4c(c3c2)n(C2CCOCC2)c(=O)n4C)cn1 [AZD0156] (first compound max 1 µM, 7x7, partner max 1 µM) | 0.0112 | -0.0582 | -0.0548 | -0.0137 | 0.0081 | -0.0364 | -0.044 | -0.0611 | -0.036 | -0.0139 | -0.045 | -0.0238 | 0.0281 | -0.0105 | -0.0341 | 0.0159 | -0.0711 | -0.0133 | 0.0163 | -0.0512
Cc1cc2ncnn2cc1Nc1ncc2c(n1)n(C1CCOCC1)c(=O)n2C [AZD7648] + O=C(c1cc(Cc2n[nH]c(=O)c3ccccc23)ccc1F)N1CCN(C(=O)C2CC2)CC1 [Olaparib] (first compound max 10 µM, 7x7, partner max 10 µM) | 0.0174 | -0.0712 | -0.0464 | -0.0432 | 0.0169 | -0.042 | 0.0216 | -0.0801 | -0.0223 | -0.0127 | 0.0285 | -0.0413 | -0.0795 | 0.0011 | -0.0466 | -0.0678 | -0.0451 | -0.0432 | 0.0721 | -0.0469
COc1nnc2ccc(N3CCC(c4ccc(OCCN5CCN(C)C(=O)[C@H]5C)cc4)CC3)nn12 [AZD5153] + Cc1c2c(nn1C)CSCc1cc(n(C)n1)CSc1cc(c3ccccc3c1)OCCCc1c(C(=O)O)n(C)c3c-2c(Cl)ccc13 [AZD5991] (first compound max 1 µM, 7x7, partner max 1 µM) | -0.0083 | -0.015 | -0.0499 | 0.0848 | 0.0163 | -0.0797 | 0.157 | -0.0209 | -0.0602 | 0.0515 | -0.0042 | -0.0108 | -0.0078 | -0.0119 | -0.0377 | -0.0782 | -0.0227 | -0.0319 | -0.0372 | 0.0034
Cc1nc(Nc2ncc(C(=O)Nc3c(C)cccc3Cl)s2)cc(N2CCN(CCO)CC2)n1 [Dasatinib] + CC(=O)Nc1cccc(-n2c(=O)n(C3CC3)c(=O)c3c(Nc4ccc(I)cc4F)n(C)c(=O)c(C)c32)c1 [Trametinib] (first compound max 2 µM, 7x7, partner max 1 µM) | 0.0091 | 0.0009 | 0.0766 | -0.0239 | -0.0405 | 0.117 | -0.0548 | 0.027 | -0.0604 | 0.0599 | -0.0442 | 0.0545 | 0.0062 | -0.0232 | 0.0602 | -0.026 | -0.047 | -0.0275 | -0.0216 | -0.0511
COc1cccc(OCCCN)c1-c1cc(Nc2cnc(C#N)cn2)n[nH]1 [Prexasertib] + C=CCn1c(=O)c2cnc(Nc3ccc(N4CCN(C)CC4)cc3)nc2n1-c1cccc(C(C)(C)O)n1 [AZD1775] (first compound max 1 µM, partner max 1 µM) | 0.0907 | -0.0074 | -0.0496 | 0.0538 | 0.0431 | 0.0573 | 0.0393 | 0.0023 | 0.0483 | 0.0319 | 0.0398 | 0.0657 | 0.169 | 0.0907 | 0.0582 | -0.006 | 0.128 | -0.0336 | 0.102 | -0.0353
